# According to ChEMBL document CHEMBL1153661, “Antiviral optically pure dioxolane purine nucleosides analogues” (Bioorg Med Chem Lett, 1993):
# pIC50: −log10 of the molar value.
# Legend:
# [1] = Compound was tested for inhibitory activity against HIV in human peripheral blood mononuclear (PBM, LAV strain of HIV-l) cells; format: functional, cell-based
# [2] = Compound was tested for cytotoxicity against human peripheral blood mononuclear (PBM, LAV strain of HIV-l) cells; format: functional; conditions: read-out: CD50 (the source's name)
# MT4 [3] = assay: Compound was tested for cytotoxicity against MT-4 cells (MT-4, RF strain of HIV-1); format: functional; conditions: Homo sapiens, read-out: CD50 (the source's name)
# MT4 [4] = assay: Compound was tested for inhibitory activity against HIV in whole cell assay (MT-4, RF strain of HIV-1 at a concentration up to […]); format: functional, cell-based; conditions: Homo sapiens
# MT4 [5] = assay: Compound was tested for inhibitory activity against HIV in whole cell assay (MT-4, RF strain of HIV-1 at a concentration up to […]); IA: Found inactive; format: functional, cell-based, Homo sapiens
# MT4 [6] = assay: Compound was tested for cytotoxicity against MT-4 cells (MT-4, RF strain of HIV-1); Compound was found non cytotoxic; format: functional, cell-based; conditions: Homo sapiens
SMILES,pIC50 [1],CC50 [2] [µM],CC50 (MT4 [3]) [µM],pIC50 (MT4 [4]),IC50 (MT4 [5]),CD50 (MT4 [6])
Nc1nc2c(ncn2[C@H]2CO[C@@H](CO)O2)c(=O)[nH]1,7.52,> 100,> 425,4.97,,
Nc1nc(O)c2ncn([C@@H]3CO[C@H](CO)O3)c2n1,,,,,Not Active,Non-toxic
